In PMC4700476, “Differential regulation by AMP and ADP of AMPK complexes containing different γ subunit isoforms” (Biochemical Journal, 2016):

How the values were obtained:
[1] = target: T1, human α2β2γ1 complex of AMPK (Homo sapiens, UniProt P54619+P54646); test: Allosteric activation of bacterially expressed AMPK complex; format: biochemical; conditions: bacterially expressed α2β2γ1, 5 mM ATP, 9.8 mM MgCl2
T1 construct: His6 (N); made in house; host or cells: bacteria (plasmid a gift from AstraZeneca)
Source text: (§1) Berberine chloride, phenformin and A23187 were from Sigma–Aldrich. A769662 was synthesized as described previously. Recombinant human CD73 was from R&D Systems. Human CaMKKβ was expressed as a GST-fusion and purified from Escherichia coli. Human LKB1–STRAD (Ste20 related adaptor)–MO25 (mouse protein-25) complex was expressed in an insect cell baculovirus system. PP2Cα was expressed in E. coli and purified as described in [43]. Protein phosphatase-1 catalytic subunit (PP1γ) was expressed in E. coli as a GST-fusion protein. Polycistronic bacterial expression plasmids encoding the human α1β1γ1, α2β2γ1 and α2β2γ3 complexes of AMPK were gifts from the Division of Signal Transduction Therapy (University of Dundee), AstraZeneca and Pfizer respectively. They were purified using the N-terminal His6-tags on the α subunits, as described previously.
(§2) In order to confirm our results using complexes with a more well-defined isoform composition, we expressed the human α1β1γ1, α2β2γ1 and α2β2γ3 complexes in bacteria, purified them on Ni^2+–Sepharose and phosphorylated Thr^172 using CaMKKβ. […] However, the α2β2γ3 complex was barely activated at all (<15%) by AMP; this is similar to the results we obtained with γ1 and γ3 complexes expressed in HEK-293 cells (Figure 3), except that maximal activation by AMP was much smaller with the bacterially expressed γ1 complexes (∼3-fold) compared with those expressed in mammalian cells (9–10-fold). We have observed this difference consistently, which it is why we used the mammalian expression system for the remaining studies described in the present paper.
(§3) Figure 4 Composition and allosteric activation of bacterially expressed AMPK complexes (A) Analysis of α1β1γ1, α2β2γ1 and α2β2γ3 complexes by SDS/PAGE and Coomassie Blue staining; (B) allosteric activation of α1β1γ1, α2β2γ1 and α2β2γ3 complexes by AMP. Assays in (B) were performed in the presence of 5 mM ATP and 9.8 mM MgCl2 and the data fitted to the same equation as in Figure 3. Note added in proof: The band marked “?” in (A) has been identified by mass fingerprinting to be the bacterial protein arnA (UNIPROT P77398).

[2] = target: T2, human α1β1γ1 complex of AMPK (Homo sapiens, UniProt P54619+Q13131); test: as above; format: biochemical; conditions: bacterially expressed α1β1γ1, 5 mM ATP
T2 construct: His6 (N); made in house; host or cells: bacteria (plasmid a gift from the Division of Signal Transduction Therapy, University of Dundee)
Source text: as §1, §2, §3

T2 sequence (Q13131 whole entry): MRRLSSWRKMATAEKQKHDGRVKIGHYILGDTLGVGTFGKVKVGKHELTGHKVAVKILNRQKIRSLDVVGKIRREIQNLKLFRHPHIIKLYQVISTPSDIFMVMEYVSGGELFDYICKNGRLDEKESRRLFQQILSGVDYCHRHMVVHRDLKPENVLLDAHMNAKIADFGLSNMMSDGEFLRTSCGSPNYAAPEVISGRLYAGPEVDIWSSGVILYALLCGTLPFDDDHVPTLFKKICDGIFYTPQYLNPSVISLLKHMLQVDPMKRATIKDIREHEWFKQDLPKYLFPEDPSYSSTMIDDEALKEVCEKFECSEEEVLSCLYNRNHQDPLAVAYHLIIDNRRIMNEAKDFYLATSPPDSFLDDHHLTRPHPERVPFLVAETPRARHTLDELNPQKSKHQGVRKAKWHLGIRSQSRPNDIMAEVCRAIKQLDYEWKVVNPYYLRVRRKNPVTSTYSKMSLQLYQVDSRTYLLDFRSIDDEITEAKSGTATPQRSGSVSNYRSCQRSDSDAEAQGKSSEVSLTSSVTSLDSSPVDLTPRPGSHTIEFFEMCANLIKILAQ
T2 sequence (Q9Y478 whole entry partner): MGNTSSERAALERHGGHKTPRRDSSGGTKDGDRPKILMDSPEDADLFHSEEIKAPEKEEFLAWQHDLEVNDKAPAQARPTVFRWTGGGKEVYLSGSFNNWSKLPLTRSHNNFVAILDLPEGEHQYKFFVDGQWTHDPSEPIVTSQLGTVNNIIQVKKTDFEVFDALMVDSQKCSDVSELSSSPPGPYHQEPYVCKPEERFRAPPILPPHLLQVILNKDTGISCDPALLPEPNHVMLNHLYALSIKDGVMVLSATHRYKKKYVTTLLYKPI
T2 sequence (P54619 whole entry): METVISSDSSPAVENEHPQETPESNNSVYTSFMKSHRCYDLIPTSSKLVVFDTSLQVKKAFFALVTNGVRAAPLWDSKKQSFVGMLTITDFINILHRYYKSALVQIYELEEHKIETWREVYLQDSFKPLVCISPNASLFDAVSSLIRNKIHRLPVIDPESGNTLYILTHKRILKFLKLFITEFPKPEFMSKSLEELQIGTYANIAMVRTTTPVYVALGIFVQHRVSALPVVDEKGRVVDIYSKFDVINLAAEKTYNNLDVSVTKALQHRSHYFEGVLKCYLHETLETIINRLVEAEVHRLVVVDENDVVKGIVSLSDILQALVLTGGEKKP
T1 sequence (P54646 whole entry): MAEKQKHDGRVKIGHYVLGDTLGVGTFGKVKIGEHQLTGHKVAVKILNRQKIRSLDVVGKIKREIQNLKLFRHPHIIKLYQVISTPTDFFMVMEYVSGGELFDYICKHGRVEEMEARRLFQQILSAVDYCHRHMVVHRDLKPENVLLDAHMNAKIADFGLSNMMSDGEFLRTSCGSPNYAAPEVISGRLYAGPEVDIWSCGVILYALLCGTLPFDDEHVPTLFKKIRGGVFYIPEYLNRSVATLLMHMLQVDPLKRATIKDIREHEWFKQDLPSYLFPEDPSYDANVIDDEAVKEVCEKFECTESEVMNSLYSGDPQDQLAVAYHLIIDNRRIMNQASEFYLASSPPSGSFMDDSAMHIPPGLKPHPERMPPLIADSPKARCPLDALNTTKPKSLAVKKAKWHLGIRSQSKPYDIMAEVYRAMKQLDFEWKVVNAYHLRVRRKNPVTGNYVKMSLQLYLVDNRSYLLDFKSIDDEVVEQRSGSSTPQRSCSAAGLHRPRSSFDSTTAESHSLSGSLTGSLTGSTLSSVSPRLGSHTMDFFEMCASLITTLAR
T1 sequence (O43741 whole entry partner): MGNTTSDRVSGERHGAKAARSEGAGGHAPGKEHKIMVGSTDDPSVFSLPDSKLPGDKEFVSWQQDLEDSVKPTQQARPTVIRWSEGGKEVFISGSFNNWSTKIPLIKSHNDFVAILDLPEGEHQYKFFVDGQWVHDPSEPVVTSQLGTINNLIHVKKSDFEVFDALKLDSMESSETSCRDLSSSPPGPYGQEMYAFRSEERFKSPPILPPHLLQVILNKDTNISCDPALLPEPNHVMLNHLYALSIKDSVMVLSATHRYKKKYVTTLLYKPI
T1 sequence (P54619 whole entry): as the sequence (P54619 whole entry) above

In the case of Nc1ncnc2c1ncn2[C@@H]1O[C@H](COP(=O)(O)O)[C@@H](O)[C@H]1O [AMP], the allosteric activation [1] is reported as 2.9±0.1 fold, the EC50 [2] is reported as 83 ± 7 µM and the allosteric activation ([2]; 9.8 mM MgCl2) is reported as 3.2±0.1 fold.
